One data set concerns the target T1, CSF1R (Homo sapiens, UniProt P07333).
T1 sequence (P07333 539-972 limits assumed): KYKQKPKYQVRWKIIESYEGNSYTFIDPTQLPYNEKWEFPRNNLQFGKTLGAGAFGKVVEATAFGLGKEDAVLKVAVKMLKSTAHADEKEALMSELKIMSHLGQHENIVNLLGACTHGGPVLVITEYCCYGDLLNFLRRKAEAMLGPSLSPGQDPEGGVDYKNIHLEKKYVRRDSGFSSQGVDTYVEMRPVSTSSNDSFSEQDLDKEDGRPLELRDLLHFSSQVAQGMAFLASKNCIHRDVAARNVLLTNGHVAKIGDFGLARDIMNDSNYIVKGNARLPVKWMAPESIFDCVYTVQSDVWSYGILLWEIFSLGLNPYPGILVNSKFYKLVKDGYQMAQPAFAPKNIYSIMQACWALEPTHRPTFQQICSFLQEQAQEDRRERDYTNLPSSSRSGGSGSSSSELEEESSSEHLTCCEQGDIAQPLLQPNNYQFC
In words: CSF1R enzymatic inhibition, TR-FRET-based LANCE Ultra assay. The data set is classed as biochemical. The following applies: single 8-point titrations, ATP concentration 25 µM, read-out: Enz. IC50.

The subject of a further data set is CSF1R Ba/F3 cells. In words: Cell viability assay, Ba/F3 cells engineered to be dependent on CSF1R. The data set is classed as cell-based. The following applies: duplicate measurements; for IC50: Mus musculus, BaF3, Ba/F3 cells dependent on CSF1R; for CSF1R Ba/F3 IC50: Ba/F3 cells dependent on CSF1R.
For data set [1], the system named is IL-3 dependent Ba/F3 cell line (CSF1R independent). In words: Control assay for cellular toxicity, Ba/F3 cells dependent on IL-3. The data set is classed as cell-based. The following applies: Mus musculus, BaF3; Ba/F3 cells dependent on IL-3, control for cellular toxicity.
Data set [2] is described as follows: Kinetic solubility, spectrophotometric. The following applies: aqueous buffer, kinetic from dmso stock, spectrophotometrically at pH 7.4 in HEPES buffer. The data set is classed as physicochemical.

In brackets after ≈: the same amount, converted by molar mass.

Broadly, the IC50 is the concentration that gives 50% inhibition. For orientation: kinetic solubility means the concentration staying in solution when a stock, usually in DMSO, is diluted into the medium.

For the compound `Cc1cccc(CN(C)c2ncnc3[nH]c(-c4cn(-c5ccccc5)nn4)cc23)c1` [Compound 18a, N-Methyl-N-(3-methylbenzyl)-6-(1-phenyl-1H-1,2,3-triazol-4-yl)-7H-pyrrolo[2,3-d]pyrimidin-4-amine], the values for the IC50 (on CSF1R; in the data set on CSF1R Ba/F3 cells; in data set [1]) were 1.9 nM, more than 10000 nM and more than 10000 nM, respectively. The solubility (kinetic) in data set [2] stood at 0.3 µM (≈ 0.119 µg/mL).
As to `CN(CC1CCOCC1)c1ncnc2[nH]c(-c3cn(-c4ccccc4)nn3)cc12` [Compound 18b, N-Methyl-6-(1-phenyl-1H-1,2,3-triazol-4-yl)-N-((tetrahydro-2H-pyran-4-yl)methyl)-7H-pyrrolo[2,3-d]pyrimidin-4-amine], the IC50 (with CSF1R Ba/F3 cells; in data set [1]) was more than 10000 nM throughout. The kinetic solubility in data set [2] was determined as 14 µM (≈ 5.45 µg/mL).
Turning to `Cc1cccc(CN(C)c2ncnc3[nH]c(-c4cn(-c5ccc(F)cc5)nn4)cc23)c1` [Compound 19a, 6-(1-(4-Fluorophenyl)-1H-1,2,3-triazol-4-yl)-N-methyl-N-(3-methylbenzyl)-7H-pyrrolo[2,3-d]pyrimidin-4-amine], the IC50 at CSF1R was 7.7 nM; in the data set with CSF1R Ba/F3 cells it was more than 10000 nM; in data set [1], more than 10000 nM. The compound further displayed a solubility (kinetic) in data set [2] of 0.4 µM (≈ 0.165 µg/mL).
Turning to `CN(CC1CCOCC1)c1ncnc2[nH]c(-c3cn(-c4ccc(F)cc4)nn3)cc12` [Compound 19b, 6-(1-(4-Fluorophenyl)-1H-1,2,3-triazol-4-yl)-N-methyl-N-((tetrahydro-2H-pyran-4-yl)methyl)-7H-pyrrolo[2,3-d]pyrimidin-4-amine], the IC50 was 2.1 nM at CSF1R, more than 10000 nM in the data set with CSF1R Ba/F3 cells and more than 10000 nM in data set [1]. Also, in the data set on CSF1R Ba/F3 cells, the “CSF1R Ba/F3 IC50” value is listed as “No measurable cell activity”. The compound further returned a kinetic solubility in data set [2] of 11 µM (≈ 4.48 µg/mL).
As for `Cc1ccc(-n2cc(-c3cc4c(N(C)Cc5cccc(C)c5)ncnc4[nH]3)nn2)cc1` [Compound 20a, N-Methyl-N-(3-methylbenzyl)-6-(1-(p-tolyl)-1H-1,2,3-triazol-4-yl)-7H-pyrrolo[2,3-d]pyrimidin-4-amine], the results for the IC50 (at CSF1R; in the data set with CSF1R Ba/F3 cells; in data set [1]) were 28.2 nM, more than 10000 nM and more than 10000 nM, respectively. In data set [2], the kinetic solubility amounted to 3 µM (≈ 1.23 µg/mL).
For `Cc1ccc(-n2cc(-c3cc4c(N(C)CC5CCOCC5)ncnc4[nH]3)nn2)cc1` [Compound 20b, N-Methyl-N-((tetrahydro-2H-pyran-4-yl)methyl)-6-(1-(p-tolyl)-1H-1,2,3-triazol-4-yl)-7H-pyrrolo[2,3-d]pyrimidin-4-amine], the figures for the IC50 (at CSF1R; with CSF1R Ba/F3 cells; in data set [1]) were 9.1 nM, 3200 ± 900 nM and more than 10000 nM, respectively. Moreover, in data set [2], the kinetic solubility was 0.7 µM (≈ 0.282 µg/mL).
In the same order, the values of `COc1ccc(-n2cc(-c3cc4c(N(C)Cc5cccc(C)c5)ncnc4[nH]3)nn2)cc1` [Compound 21a, 6-(1-(4-Methoxyphenyl)-1H-1,2,3-triazol-4-yl)-N-methyl-N-(3-methylbenzyl)-7H-pyrrolo[2,3-d]pyrimidin-4-amine] are 5.9 nM, 6000 nM, more than 10000 nM and 1.3 µM (≈ 0.553 µg/mL).
Turning to `Cc1cccc(CN(C)c2ncnc3[nH]c(-c4cn(-c5cccnc5)nn4)cc23)c1` [Compound 22a, N-Methyl-N-(3-methylbenzyl)-6-(1-(pyridin-3-yl)-1H-1,2,3-triazol-4-yl)-7H-pyrrolo[2,3-d]pyrimidin-4-amine], the values for the IC50 (on CSF1R; in the data set on CSF1R Ba/F3 cells; in data set [1]) were 2.3 nM, 1200 ± 200 nM and more than 10000 nM, respectively. In data set [2], this compound showed a solubility (kinetic) of 11 µM (≈ 4.36 µg/mL).
Consider `CN(CC1CCOCC1)c1ncnc2[nH]c(-c3cn(-c4cccnc4)nn3)cc12` [Compound 22b, N-Methyl-6-(1-(pyridin-3-yl)-1H-1,2,3-triazol-4-yl)-N-((tetrahydro-2H-pyran-4-yl)methyl)-7H-pyrrolo[2,3-d]pyrimidin-4-amine], for which the IC50 at CSF1R was 2.1 nM; with CSF1R Ba/F3 cells, 1600 ± 300 nM; in data set [1], more than 10000 nM. In data set [2], this compound came in with a solubility (kinetic) of 37 µM (≈ 14.4 µg/mL).
Turning to `Cc1cccc(CN(C)c2ncnc3[nH]c(-c4cn(Cc5ccccc5)nn4)cc23)c1` [Compound 23a, 6-(1-Benzyl-1H-1,2,3-triazol-4-yl)-N-methyl-N-(3-methylbenzyl)-7H-pyrrolo[2,3-d]pyrimidin-4-amine], the results for the IC50 (on CSF1R; in the data set on CSF1R Ba/F3 cells; in data set [1]) were 2 nM, more than 10000 nM and more than 10000 nM, respectively. The compound also had a kinetic solubility in data set [2] of 0.3 µM (≈ 0.123 µg/mL).
For the compound `CN(CC1CCOCC1)c1ncnc2[nH]c(-c3cn(Cc4ccccc4)nn3)cc12` [Compound 23b, 6-(1-Benzyl-1H-1,2,3-triazol-4-yl)-N-methyl-N-((tetrahydro-2H-pyran-4-yl)methyl)-7H-pyrrolo[2,3-d]pyrimidin-4-amine], the IC50 on CSF1R is less than 1 nM; in the data set on CSF1R Ba/F3 cells, 3700 ± 1900 nM; in data set [1], more than 10000 nM. Moreover, in data set [2], the solubility (kinetic) is 4.9 µM (≈ 1.98 µg/mL).
In the case of `Cc1cccc(CN(C)c2ncnc3[nH]c(-c4cn(Cc5ccc(F)cc5)nn4)cc23)c1` [Compound 24a, 6-(1-(4-Fluorobenzyl)-1H-1,2,3-triazol-4-yl)-N-methyl-N-(3-methylbenzyl)-7H-pyrrolo[2,3-d]pyrimidin-4-amine], the results for the IC50 (on CSF1R; with CSF1R Ba/F3 cells; in data set [1]) were 2 nM, more than 10000 nM and more than 10000 nM, respectively. The solubility (kinetic) in data set [2] is 0.2 µM (≈ 0.0855 µg/mL).
With `CN(CC1CCOCC1)c1ncnc2[nH]c(-c3cn(Cc4ccc(F)cc4)nn3)cc12` [Compound 24b, 6-(1-(4-Fluorobenzyl)-1H-1,2,3-triazol-4-yl)-N-methyl-N-((tetrahydro-2H-pyran-4-yl)methyl)-7H-pyrrolo[2,3-d]pyrimidin-4-amine], the IC50 is 1.5 nM on CSF1R, 4600 ± 2700 nM in the data set on CSF1R Ba/F3 cells and more than 10000 nM in data set [1]. Further, the kinetic solubility in data set [2] was 1.7 µM (≈ 0.717 µg/mL).
As to `Cc1ccc(Cn2cc(-c3cc4c(N(C)Cc5cccc(C)c5)ncnc4[nH]3)nn2)cc1` [Compound 25a, N-Methyl-N-(3-methylbenzyl)-6-(1-(4-methylbenzyl)-1H-1,2,3-triazol-4-yl)-7H-pyrrolo[2,3-d]pyrimidin-4-amine], the values for the IC50 (at CSF1R; in the data set with CSF1R Ba/F3 cells; in data set [1]) were 6.3 nM, more than 10000 nM and more than 10000 nM, respectively. Besides, in data set [2], the kinetic solubility is 1.1 µM (≈ 0.466 µg/mL).
`COc1ccc(Cn2cc(-c3cc4c(N(C)Cc5cccc(C)c5)ncnc4[nH]3)nn2)cc1` [Compound 26a, 6-(1-(4-Methoxybenzyl)-1H-1,2,3-triazol-4-yl)-N-methyl-N-(3-methylbenzyl)-7H-pyrrolo[2,3-d]pyrimidin-4-amine]: the IC50 is 5.8 nM at CSF1R, 2800 ± 300 nM with CSF1R Ba/F3 cells and more than 10000 nM in data set [1]. The compound also gave a kinetic solubility in data set [2] of 4.6 µM (≈ 2.02 µg/mL).
For the compound `COc1ccc(Cn2cc(-c3cc4c(N(C)CC5CCOCC5)ncnc4[nH]3)nn2)cc1` [Compound 26b, 6-(1-(4-Methoxybenzyl)-1H-1,2,3-triazol-4-yl)-N-methyl-N-((tetrahydro-2H-pyran-4-yl)methyl)-7H-pyrrolo[2,3-d]pyrimidin-4-amine], the figures for the IC50 (on CSF1R; with CSF1R Ba/F3 cells; in data set [1]) were less than 1 nM, 1500 ± 500 nM and more than 10000 nM, respectively. The solubility (kinetic) in data set [2] was 7.2 µM (≈ 3.12 µg/mL).
Take `Cc1cccc(CN(C)c2ncnc3[nH]c(-c4cn(CCCO)nn4)cc23)c1` [Compound 28a, 3-(4-(4-(Methyl(3-methylbenzyl)amino)-7H-pyrrolo[2,3-d]pyrimidin-6-yl)-1H-1,2,3-triazol-1-yl)propan-1-ol]: the IC50 is less than 1 nM on CSF1R, 1000 ± 100 nM in the data set on CSF1R Ba/F3 cells and more than 10000 nM in data set [1]. Also, the kinetic solubility in data set [2] was found to be 5.5 µM (≈ 2.08 µg/mL).
Regarding `CN(CC1CCOCC1)c1ncnc2[nH]c(-c3cn(CCCO)nn3)cc12` [Compound 28b, 3-(4-(4-(Methyl((tetrahydro-2H-pyran-4-yl)methyl)amino)-7H-pyrrolo[2,3-d]pyrimidin-6-yl)-1H-1,2,3-triazol-1-yl)propan-1-ol], the figures for the IC50 (at CSF1R; in the data set on CSF1R Ba/F3 cells; in data set [1]) were 1.1 nM, more than 10000 nM and more than 10000 nM, respectively. Further, the “CSF1R Ba/F3 IC50” value in the data set with CSF1R Ba/F3 cells is “inactive”. The compound further returned a solubility (kinetic) in data set [2] of 495 µM (≈ 184 µg/mL).
`Cc1cccc(CN(C)c2ncnc3[nH]c(-c4cn(C5CCOCC5)nn4)cc23)c1` [Compound 29a, N-Methyl-N-(3-methylbenzyl)-6-(1-(tetrahydro-2H-pyran-4-yl)-1H-1,2,3-triazol-4-yl)-7H-pyrrolo[2,3-d]pyrimidin-4-amine]: the IC50 was less than 1 nM on CSF1R, more than 10000 nM in the data set with CSF1R Ba/F3 cells and more than 10000 nM in data set [1]. The compound further yielded a solubility (kinetic) in data set [2] of 20 µM (≈ 8.07 µg/mL).
Turning to `CN(CC1CCOCC1)c1ncnc2[nH]c(-c3cn(C4CCOCC4)nn3)cc12` [Compound 29b, N-Methyl-6-(1-(tetrahydro-2H-pyran-4-yl)-1H-1,2,3-triazol-4-yl)-N-((tetrahydro-2H-pyran-4-yl)methyl)-7H-pyrrolo[2,3-d]pyrimidin-4-amine], the IC50 is less than 1 nM on CSF1R, more than 10000 nM with CSF1R Ba/F3 cells and more than 10000 nM in data set [1]. Further, the “CSF1R Ba/F3 IC50” value in the data set with CSF1R Ba/F3 cells is reported as “No measurable cell activity”. Further, the solubility (kinetic) in data set [2] was 76 µM (≈ 30.2 µg/mL).

The values are drawn from article PMC12196347, “Evaluating Triazole-Substituted Pyrrolopyrimidines as CSF1R Inhibitors” (Molecules, 2025).
